From patent publication US20250353848A1, “HETEROCYCLIC PAD4 INHIBITORS” (Celgene Corporation, priority 2022, published 2025)

Key:
hPAD4 enzyme [1] = biological target: T1, hPAD4 enzyme (Homo sapiens, UniProt Q9UM07); experiment: RFMS Assay 1 (rapid-fire mass spectrum PAD4 inhibition assay, BAEE substrate); type: biochemical; settings: 5 nM hPAD4 enzyme, 250 μM BAEE, 30 mins compound and enzyme preincubation at 37° C., 90 min enzyme/substrate reaction
Procedure, shortened: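 Human PAD4 (5 nM) preincubated 30 min at 37 °C with compound (top 50 μM, 0.5% DMSO), then 250 μM BAEE for 90 min at 37 °C in pH 7.5 HEPES with 50 μM calcium, 5 μM TPEN, 1 mM DTT. Product derivatized with phenyl glyoxal; citrulline product quantified by RapidFire MS/MS MRM, normalized to internal standard.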

hPAD4 enzyme [2] = biological target: T1, hPAD4 enzyme; experiment: RFMS Assay 2 (rapid-fire mass spectrum PAD4 inhibition assay, peptide substrate); type: biochemical; settings: 35 nM recombinant human PAD4, substrate TSTGGRQGSHH, room temperature for 30 minutes; read-out: human PAD4 (hPAD4) IC50, RFMS Assay 2
Procedure: Stock compounds were dissolved and stored in 100% DMSO. Compound solutions were prepared via serial dilution at 3-fold intervals in DMSO with top compound concentration at […] in each assay. 0.25 μl of compound solution was transferred from the compound plate to the assay plate by using an acoustic dispenser. Final assay conditions: • Total reaction volume: 25 μl • Assay buffer: […] pH 7.4, 200 mM NaCl, 2 mM CaCl2, 5 mM DTT • 35 nM recombinant human PAD4 • 500 µM TSTGGRQGSHH (SEQ ID NO: 1) • 1.2% DMSO • Stop solution: 10% formic acid
Reaction mixtures were incubated at room temperature for 30 minutes. 10 μl each of the reaction mixtures was then mixed with 40 μl of 10% formic acid in a microtiter plate. The plate was frozen at −80° C. before shipping out on dry ice for RapidFire mass spectroscopy analysis.
Thawed samples were loaded onto the Rapid Fire 300 system (Agilent) wherein they were first sipped for 250 ms and then loaded onto a Agilent “C” (C18) cartridge using a mobile phase of water containing 0.09% formic acid/0.01% trifluoroacetic acid for 3000 ms desalting flowing at a rate of 1.5 ml/min. Once the samples were loaded and washed, a mobile phase of acetonitrile containing 0.09% formic acid/0.01% trifluoroacetic acid was used to elute the samples directly onto a Sciex API4000 triple quadrupole mass spectrometer for 3000 ms at a flow rate of 1.25 ml/min.
MRM transitions for substrate and product were monitored in positive ESI mode at m/z=562.3/969.7 and m/z=562.8/541.3 respectively. The dwell time for each transition was set at 100 ms, and the ESI voltage was used at 5500 with a source temperature of 650° C. Extracted ion peaks for each transition were integrated using the Rapid Fire Integrator software.

T1 sequence (Q9UM07 whole entry): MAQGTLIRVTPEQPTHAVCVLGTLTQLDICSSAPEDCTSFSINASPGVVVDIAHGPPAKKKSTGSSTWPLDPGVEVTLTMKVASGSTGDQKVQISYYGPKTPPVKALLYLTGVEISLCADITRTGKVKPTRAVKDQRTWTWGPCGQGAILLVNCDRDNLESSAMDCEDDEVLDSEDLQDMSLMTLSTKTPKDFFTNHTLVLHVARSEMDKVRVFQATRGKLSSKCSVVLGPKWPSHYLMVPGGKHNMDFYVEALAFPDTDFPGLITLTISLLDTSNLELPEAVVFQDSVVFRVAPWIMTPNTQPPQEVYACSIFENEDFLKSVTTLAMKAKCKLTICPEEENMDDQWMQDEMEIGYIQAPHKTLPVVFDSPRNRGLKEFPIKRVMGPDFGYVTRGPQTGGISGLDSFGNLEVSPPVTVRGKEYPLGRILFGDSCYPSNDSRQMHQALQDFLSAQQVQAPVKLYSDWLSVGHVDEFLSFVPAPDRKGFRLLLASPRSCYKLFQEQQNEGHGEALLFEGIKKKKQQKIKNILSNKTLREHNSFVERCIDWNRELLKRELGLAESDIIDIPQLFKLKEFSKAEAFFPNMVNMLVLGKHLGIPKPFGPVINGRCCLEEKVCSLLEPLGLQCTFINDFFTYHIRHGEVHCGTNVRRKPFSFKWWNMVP

| IC50 (hPAD4 enzyme [1]) | IC50 (hPAD4 enzyme [2]) | Structure (SMILES) |
| --- | --- | --- |
| 11 to 100 nM | 101 to 500 nM | Cn1c(-c2cc3cccc(OCCn4cncc4F)c3n2CC2CC2)nc2cc3c(nc21)CCN(C[C@H](N)CF)C3=O [Example 42, (S)-7-(2-amino-3-fluoropropyl)-2-(1-(cyclopropylmethyl)-7-(2-(5-fluoro-1H-imidazol-1-yl)ethoxy)-1H-indol-2-yl)-3-methyl-3,5,6,7-tetrahydro-8H-imidazo[4,5-b][1,6]naphthyridin-8-one] |
| ≤ 10 nM | 11 to 100 nM | Cn1c(-c2cc3cccc(OCCc4ccn[nH]4)c3n2CC2CC2)nc2cc3c(nc21)CCN(C[C@H](N)CF)C3=O [Example 43, (S)-2-(7-(2-(1H-pyrazol-5-yl)ethoxy)-1-(cyclopropylmethyl)-1H-indol-2-yl)-7-(2-amino-3-fluoropropyl)-3-methyl-3,5,6,7-tetrahydro-8H-imidazo[4,5-b][1,6]naphthyridin-8-one] |
| ≤ 10 nM | 11 to 100 nM | Cn1c(-c2cc3cccc(OCCn4ccnc4)c3n2CC2CC2)nc2cc3c(nc21)CCN(C[C@H](N)CF)C3=O [Example 44, (S)-2-(7-(2-(1H-imidazol-1-yl)ethoxy)-1-(cyclopropylmethyl)-1H-indol-2-yl)-7-(2-amino-3-fluoropropyl)-3-methyl-3,5,6,7-tetrahydro-8H-imidazo[4,5-b][1,6]naphthyridin-8-one] |
| ≤ 10 nM | 11 to 100 nM | Cn1c(-c2cc3cccc(OCCc4ccon4)c3n2CC2CC2)nc2cc3c(nc21)CCN(C[C@H](N)CF)C3=O [Example 46, (S)-7-(2-amino-3-fluoropropyl)-2-(1-(cyclopropylmethyl)-7-(2-(isoxazol-3-yl)ethoxy)-1H-indol-2-yl)-3-methyl-3,5,6,7-tetrahydro-8H-imidazo[4,5-b][1,6]naphthyridin-8-one] |
| ≤ 10 nM | 11 to 100 nM | Cn1c(-c2cc3cccc(OCCc4cnn[nH]4)c3n2CC2CC2)nc2cc3c(nc21)CCN(C[C@H](N)CF)C3=O [Example 47, (S)-2-(7-(2-(1H-1,2,3-triazol-5-yl)ethoxy)-1-(cyclopropylmethyl)-1H-indol-2-yl)-7-(2-amino-3-fluoropropyl)-3-methyl-3,5,6,7-tetrahydro-8H-imidazo[4,5-b][1,6]naphthyridin-8-one] |
| 11 to 100 nM | 101 to 500 nM | Cc1ncoc1CCOc1cccc2cc(-c3nc4cc5c(nc4n3C)CCN(C[C@H](N)CF)C5=O)n(CC3CC3)c12 [Example 48, (S)-7-(2-amino-3-fluoropropyl)-2-(1-(cyclopropylmethyl)-7-(2-(4-methyloxazol-5-yl)ethoxy)-1H-indol-2-yl)-3-methyl-3,5,6,7-tetrahydro-8H-imidazo[4,5-b][1,6]naphthyridin-8-one] |
| 11 to 100 nM | 11 to 100 nM | Cc1nnc(CCOc2cccc3cc(-c4nc5cc6c(nc5n4C)CCN(C[C@H](N)CF)C6=O)n(CC4CC4)c23)o1 [Example 54, (S)-7-(2-amino-3-fluoropropyl)-2-(1-(cyclopropylmethyl)-7-(2-(5-methyl-1,3,4-oxadiazol-2-yl)ethoxy)-1H-indol-2-yl)-3-methyl-3,5,6,7-tetrahydro-8H-imidazo[4,5-b][1,6]naphthyridin-8-one] |
| 11 to 100 nM | 11 to 100 nM | Cn1c(-c2cc3cccc(OC[C@@H]4CNC(=O)C4)c3n2CC2CC2)nc2cc3c(nc21)CCN(C[C@H](N)CF)C3=O [Example 59, 7-((S)-2-amino-3-fluoropropyl)-2-(1-(cyclopropylmethyl)-7-(((S)-5-oxopyrrolidin-3-yl)methoxy)-1H-indol-2-yl)-3-methyl-3,5,6,7-tetrahydro-8H-imidazo[4,5-b][1,6]naphthyridin-8-one] |
| 11 to 100 nM | 101 to 500 nM | C[C@H](Cn1ccnc1)Oc1cccc2cc(-c3nc4cc5c(nc4n3C)CCN(C[C@H](N)CF)C5=O)n(CC3CC3)c12 [Example 62, 2-(7-(((R)-1-(1H-imidazol-1-yl)propan-2-yl)oxy)-1-(cyclopropylmethyl)-1H-indol-2-yl)-7-((S)-2-amino-3-fluoropropyl)-3-methyl-3,5,6,7-tetrahydro-8H-imidazo[4,5-b][1,6]naphthyridin-8-one] |
| ≤ 10 nM | 11 to 100 nM | Cn1c(-c2cc3cccc(OCCn4cnc(F)c4)c3n2CC2CC2)nc2cc3c(nc21)CCN(C[C@H](N)CF)C3=O [Example 70, (S)-7-(2-amino-3-fluoropropyl)-2-(1-(cyclopropylmethyl)-7-(2-(4-fluoro-1H-imidazol-1-yl)ethoxy)-1H-indol-2-yl)-3-methyl-3,5,6,7-tetrahydro-8H-imidazo[4,5-b][1,6]naphthyridin-8-one] |

Continued, compound first:

| Structure (SMILES) | IC50 (hPAD4 enzyme [1]) | IC50 (hPAD4 enzyme [2]) |
| --- | --- | --- |
| COc1c(F)ccc2cc(-c3nc4cc5c(nc4n3C)CCN(C[C@H](N)CF)C5=O)n(Cc3ccno3)c12 [Example 23, (S)-7-(2-amino-3-fluoropropyl)-2-(6-fluoro-1-(isoxazol-5-ylmethyl)-7-methoxy-1H-indol-2-yl)-3-methyl-3,5,6,7-tetrahydro-8H-imidazo[4,5-b][1,6]naphthyridin-8-one] | 11 to 100 nM | 501 to 1000 nM |
| C[C@@H](N)CN1CCc2nc3c(cc2C1=O)nc(-c1cc2ccccc2n1CC1CC1)n3C [Example 24, (R)-7-(2-aminopropyl)-2-(1-(cyclopropylmethyl)-1H-indol-2-yl)-3-methyl-3,5,6,7-tetrahydro-8H-imidazo[4,5-b][1,6]naphthyridin-8-one] | 11 to 100 nM | 501 to 1000 nM |
| COc1cccc2cc(-c3nc4cc5c(nc4n3C)CCN(C[C@H]3COCCN3)C5=O)n(CC3(F)CC3)c12 [Example 26, (S)-2-(1-((1-fluorocyclopropyl)methyl)-7-methoxy-1H-indol-2-yl)-3-methyl-7-(morpholin-3-ylmethyl)-3,5,6,7-tetrahydro-8H-imidazo[4,5-b][1,6]naphthyridin-8-one] | 101 to 500 nM | 101 to 500 nM |
| COc1cccc2cc(-c3nc4cc5c(nc4n3C)CCN(C[C@H]3COCCN3)C5=O)n(CC3CC3)c12 [Example 27, (S)-2-(1-(cyclopropylmethyl)-7-methoxy-1H-indol-2-yl)-3-methyl-7-(morpholin-3-ylmethyl)-3,5,6,7-tetrahydro-8H-imidazo[4,5-b][1,6]naphthyridin-8-one] | 501 to 1000 nM | > 1000 nM |
| COCC(=O)N1CCC(c2cccc3cc(-c4nc5cc6c(nc5n4C)CCN(C[C@H](N)CF)C6=O)n(CC4CC4)c23)CC1 [Example 30, (S)-7-(2-amino-3-fluoropropyl)-2-(1-(cyclopropylmethyl)-7-(1-(2-methoxyacetyl)piperidin-4-yl)-1H-indol-2-yl)-3-methyl-3,5,6,7-tetrahydro-8H-imidazo[4,5-b][1,6]naphthyridin-8-one] | 11 to 100 nM | ≤ 10 nM |
| Cn1c(-c2cc3ccc(C(C)(C)O)nc3n2CC2CC2)nc2cc3c(nc21)CCN(C[C@H](N)CF)C3=O [Example 33, (S)-7-(2-amino-3-fluoropropyl)-2-(1-(cyclopropylmethyl)-6-(2-hydroxypropan-2-yl)-1H-pyrrolo[2,3-b]pyridin-2-yl)-3-methyl-3,5,6,7-tetrahydro-8H-imidazo[4,5-b][1,6]naphthyridin-8-one] | 11 to 100 nM | 501 to 1000 nM |
| Cn1c(-c2cc3cccc(OC[C@@H]4CNC(=O)O4)c3n2CC2CC2)nc2cc3c(nc21)CCN(C[C@H](N)CF)C3=O [Example 34, (S)-5-(((2-(7-((S)-2-amino-3-fluoropropyl)-3-methyl-8-oxo-5,6,7,8-tetrahydro-3H-imidazo[4,5-b][1,6]naphthyridin-2-yl)-1-(cyclopropylmethyl)-1H-indol-7-yl)oxy)methyl)oxazolidin-2-one] | ≤ 10 nM | 11 to 100 nM |
| Cn1c(-c2cc3cccc(OCCc4cnoc4)c3n2CC2CC2)nc2cc3c(nc21)CCN(C[C@H](N)CF)C3=O [Example 39, (S)-7-(2-amino-3-fluoropropyl)-2-(1-(cyclopropylmethyl)-7-(2-(isoxazol-4-yl)ethoxy)-1H-indol-2-yl)-3-methyl-3,5,6,7-tetrahydro-8H-imidazo[4,5-b][1,6]naphthyridin-8-one] | ≤ 10 nM | 11 to 100 nM |
| Cn1c(-c2cc3cccc(OCCc4cnco4)c3n2CC2CC2)nc2cc3c(nc21)CCN(C[C@H](N)CF)C3=O [Example 41, (S)-7-(2-amino-3-fluoropropyl)-2-(1-(cyclopropylmethyl)-7-(2-(oxazol-5-yl)ethoxy)-1H-indol-2-yl)-3-methyl-3,5,6,7-tetrahydro-8H-imidazo[4,5-b][1,6]naphthyridin-8-one] | ≤ 10 nM | 11 to 100 nM |
